This is an account of results in patent US5798381A, “Biologically active bistramides, process for their production and their applications in therapy” (Institut Francais de Recherche Scientifique pour le …, priority 1993, dated 1998).

Structures are written as SMILES. In brackets after ≈: the same amount, converted by molar mass. Entries after “also recorded” stand apart in the source; their conditions may differ. Like-named read-outs stand apart in the source and are kept apart here.

One data set relates to mice. Nature of the data set: Acute toxicity (LD50), intravenous injection in mice. In kind it is in vivo. Conditions: statement in words. The method, then:
The LD50 of these bistramides is in fact of the order of 1.7 mg/kg (measured in mice, after injection of the product by intravenous route as a single dose).
The "LD50 " of the products of the invention has been measured for mice after injection of the products by intravenous route.

Data set [1] has as its system NSCLC solid tumours (xenograft). In kind it is in vivo, nude mouse. The procedure: The anti-tumoural activity of the products of the invention was studied against solid tumours of NSCLC type grafted onto a nude mouse (D. Riou, C. Roussakis, J. F. Biard, J. F. Verbist: "Comparative study of antitumor activity of bistramides A, D and K against non-small cell bronchopulmonary carcinoma", Anticancer Research, 1993, 13, 2321-2334). Each mouse received 0.2 ml of a cell solution obtained by the mechanical dispersion of about 1 g of excised mouse tumour in 4.8 ml of a sterile saline solution. The sub-cutaneous grafted tumours were measured over their long length L and their short length 1. The tumoural volume was evaluated according to the formula Vt=L×1^2 /2. The tumoural growth on day d was calculated by the formula Vtd /Vtd0 for each mouse, Vtd0 being the tumoural volume at the start of treatment.
The curve "------.circle-solid.------ " relates to the control experiment, the curves "--- .diamond-solid.---", "-- .quadrature.--" and "-- .box-solid.--" to experiments with 10, 20 and 5 mg/kg of bistramide D respectively and the curve "----*----" to an experiment with 10 mg/kg of bistramide K. Each point represents the average tumoural growth for 6 mice.
In these experiments, bistramide K is injected at the rate of 10 mg/kg by intraperitoneal route for 16 days and bistramide D at the rate of 5 mg/kg by intraperitoneal route every day for 16 days; at 10 mg/kg by intravenous route on days 1, 5, 9, 14, and at 20 mg/kg by intravenous route on days 1, 5, 9, 14.

The subject of the next data set is NSCLC.N6-L16. The data set can be described thus: Cytotoxicity, 50% inhibition of cell growth, NSCLC-N6. In kind it is cell-based. As to conditions: Homo sapiens. The method, then: (§1) The cytoxicity results are recorded hereafter as the IC50 in μg/ml (concentration corresponding to a 50% inhibition of cell growth) on 6 tumoural lines namely KB, P388, P388/dox (resistant to doxorubicin), B16 and H429 and NSCLC-N6, which are human cells of non-small cell bronchopulmonary carcinoma type.
(§2) The determinations were carried out according to the protocol given in Cancer Chemother. Pharmacol. (1991) 28:283-292 by Roussakis et al.

A further data set has as its system HT 29. Nature of the data set: Cytotoxicity, 50% inhibition of cell growth, HT 29. Format: cell-based. Conditions: Homo sapiens. The method, then:
as §1, §2

The subject of the next data set is P388 (p388s). Nature of the data set: Cytotoxicity, 50% inhibition of cell growth, P388. Format: cell-based. Conditions: Mus musculus, P388/S, read-out: IC50 (50% inhibition of cell growth). The method, then:
as §1, §2

In a further data set the test system is B16. The data set can be described thus: Cytotoxicity, 50% inhibition of cell growth, B16. In kind it is cell-based. The procedure:
as §1, §2

Another data set deals with KB. Nature of the data set: Cytotoxicity, 50% inhibition of cell growth, KB. Conditions: Homo sapiens, read-out: IC50 (50% inhibition of cell growth). Format: cell-based. The procedure: as §1, §2
The test system of the next data set is P388/dox (p388r). The data set can be described thus: Cytotoxicity, 50% inhibition of cell growth, P388/dox (resistant to doxorubicin). In kind it is cell-based. As to conditions: Mus musculus. The method, then: as §1, §2

With `C/C=C/C(=O)CC1CCC(C)C(CC(=O)NCC(O)C(C)C(=O)NCCCC2OC3(CCCC(CCC(C)/C=C(\C)C(C)O)O3)CCC2C)O1` (stereo not drawn) [Bistramide A], the toxicity in vivo entry with mice is “high toxicity; also recorded: toxic”; in the data set on mice (listed as A bistramide), “acute toxicity”. Further, the “toxicity under the conditions of the xenograft test” value in data set [1] (mouse, in vivo) is “too toxic for an anti-tumoural effect to be observed”.
Turning to `CCCC(=O)CC1CCC(C)C(CC(=O)NCC(O)C(C)C(=O)NCCCC2OC3(CCCC(CCC(C)C=C(C)C(C)O)O3)CCC2C)O1` (stereo not drawn) [Bistramide B], in the data set with mice, the toxicity in vivo result was “high toxicity”.
Turning to `C/C=C/C(=O)CC1CCC(C)C(CC(=O)NCC(O)C(C)C(=O)NCCCC2OC3(CCCC(CCC(C)C=C(C)C(C)=O)O3)CCC2C)O1` (stereo not drawn) [Bistramide C], in the data set with mice, the toxicity in vivo entry is given as “high toxicity”.
As a reminder, the IC50 is the concentration that gives 50% inhibition. Regarding `C/C=C/C(O)C/C=C/CC(C)C(O)CC(=O)NCC(O)C(C)C(=O)NCCCC1OC2(CCCC(CCC(C)/C=C(\C)C(C)O)O2)CCC1C` (stereo not drawn) [Bistramide K], the IC50 was 3.23 µg/mL (≈ 4.57 µM) in the data set on NSCLC.N6-L16 (NSCLC.N6-L16, read-out: IC50 (50% inhibition of cell growth)); 5.6 µg/mL (≈ 7.92 µM) with HT 29 (HT 29, read-out: IC50 (50% inhibition of cell growth)); 0.57 µg/mL (≈ 0.806 µM) in the data set with P388 (p388s) (p388s); 1.9 µg/mL (≈ 2.69 µM) in the data set on B16 (Mus musculus, B16; read-out: IC50 (50% inhibition of cell growth)); above 10 µg/mL in the data set on KB; above 10 µg/mL with P388/dox (p388r). For the same compound, the “tumoural growth relative to controls (100%)” value in data set [1] (10 mg/kg, IP, for 16 days, at the end of 30 days) was determined as 49%.
Turning to `C/C=C\C(=O)CC1CCC(C)C(CC(=O)NCC(O)C(C)C(=O)NCCCC2OC3(CCCC(CCC(C)/C=C(\C)C(C)O)O3)CCC2C)O1` (stereo not drawn) [Bistramide L], the IC50 came out at 0.12 µg/mL (≈ 0.17 µM) in the data set with NSCLC.N6-L16 (NSCLC-N6, read-out: IC50 (50% inhibition of cell growth)); 0.29 µg/mL (≈ 0.411 µM) with HT 29 (HT-29, read-out: IC50 (50% inhibition of cell growth)); 0.48 µg/mL (≈ 0.681 µM) with P388 (p388s); 2.4 µg/mL (≈ 3.4 µM) in the data set with B16 (Mus musculus, B16, read-out: IC50 (50% inhibition of cell growth)); 0.72 µg/mL (≈ 1.02 µM) in the data set on KB; 0.12 µg/mL (≈ 0.17 µM) in the data set with P388/dox (p388r).
